Consider seven compounds from patent EP0730590B1, “ISOXAZOLINE AND ISOXAZOLE FIBRINOGEN RECEPTOR ANTAGONISTS” (Dupont Pharmaceuticals Company, priority 1993, dated 1995).

A value given as a limit tells only on which side of the number the result lay.

Sequence of human platelet rich plasma (P08514 with tags, fused parts or gaps): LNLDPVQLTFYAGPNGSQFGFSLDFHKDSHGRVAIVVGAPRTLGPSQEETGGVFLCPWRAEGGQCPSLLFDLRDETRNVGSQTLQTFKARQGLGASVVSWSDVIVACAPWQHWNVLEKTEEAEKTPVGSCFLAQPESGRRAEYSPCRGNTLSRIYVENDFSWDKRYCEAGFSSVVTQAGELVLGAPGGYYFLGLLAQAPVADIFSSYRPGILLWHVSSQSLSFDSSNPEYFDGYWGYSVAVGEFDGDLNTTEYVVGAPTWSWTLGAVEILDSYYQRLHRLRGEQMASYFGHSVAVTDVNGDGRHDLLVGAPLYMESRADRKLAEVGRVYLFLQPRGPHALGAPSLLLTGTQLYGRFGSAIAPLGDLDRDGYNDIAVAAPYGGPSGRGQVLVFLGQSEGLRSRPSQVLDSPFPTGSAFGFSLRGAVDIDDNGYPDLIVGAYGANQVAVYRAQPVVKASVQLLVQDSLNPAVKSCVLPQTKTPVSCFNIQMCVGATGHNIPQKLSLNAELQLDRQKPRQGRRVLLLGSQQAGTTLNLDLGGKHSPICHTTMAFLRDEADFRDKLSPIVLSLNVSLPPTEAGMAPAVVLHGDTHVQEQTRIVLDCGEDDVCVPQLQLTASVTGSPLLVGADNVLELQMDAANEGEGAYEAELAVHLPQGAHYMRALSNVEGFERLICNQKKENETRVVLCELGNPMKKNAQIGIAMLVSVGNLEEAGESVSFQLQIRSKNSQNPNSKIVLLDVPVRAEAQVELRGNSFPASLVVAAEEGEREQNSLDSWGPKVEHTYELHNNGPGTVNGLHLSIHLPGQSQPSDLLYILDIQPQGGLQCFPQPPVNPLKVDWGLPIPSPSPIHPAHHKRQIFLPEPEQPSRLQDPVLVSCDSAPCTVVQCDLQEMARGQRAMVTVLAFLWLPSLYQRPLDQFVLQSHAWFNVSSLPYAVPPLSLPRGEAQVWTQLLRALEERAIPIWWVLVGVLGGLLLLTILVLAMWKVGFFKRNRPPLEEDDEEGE
Sequence of human platelet rich plasma (P05106 27-788): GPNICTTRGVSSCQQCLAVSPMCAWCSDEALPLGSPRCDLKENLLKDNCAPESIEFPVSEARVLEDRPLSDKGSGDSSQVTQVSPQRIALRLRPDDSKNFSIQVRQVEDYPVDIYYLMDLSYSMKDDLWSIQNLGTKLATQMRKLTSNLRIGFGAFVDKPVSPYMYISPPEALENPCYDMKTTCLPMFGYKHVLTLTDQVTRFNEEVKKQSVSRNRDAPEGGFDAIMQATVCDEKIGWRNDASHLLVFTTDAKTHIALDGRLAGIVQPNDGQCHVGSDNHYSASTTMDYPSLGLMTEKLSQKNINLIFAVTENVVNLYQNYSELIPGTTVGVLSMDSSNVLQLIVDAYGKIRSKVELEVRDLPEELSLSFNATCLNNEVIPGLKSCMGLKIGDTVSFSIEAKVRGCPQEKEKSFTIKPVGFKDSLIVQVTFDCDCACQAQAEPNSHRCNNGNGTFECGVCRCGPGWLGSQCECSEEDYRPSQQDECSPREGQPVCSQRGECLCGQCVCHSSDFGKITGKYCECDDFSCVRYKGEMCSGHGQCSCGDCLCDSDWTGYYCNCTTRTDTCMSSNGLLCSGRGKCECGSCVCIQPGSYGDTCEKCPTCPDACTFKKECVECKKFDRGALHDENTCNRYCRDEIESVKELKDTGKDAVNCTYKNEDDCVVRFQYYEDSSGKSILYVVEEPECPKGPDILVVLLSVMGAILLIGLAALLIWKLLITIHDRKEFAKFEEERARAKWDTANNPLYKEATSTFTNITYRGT
Sequence of agonist-induced platelet aggregation (P08514 with tags, fused parts or gaps): as the sequence (P08514 with tags, fused parts or gaps) above
Sequence of agonist-induced platelet aggregation (P05106 27-788): as the sequence (P05106 27-788) above

The first test has as its target agonist-induced platelet aggregation (Homo sapiens, UniProt P05106+P08514). Kind of test: Platelet Aggregation Assay in platelet-rich plasma (PRP). The conditions noted are these: without esterase. Format: cell-based. The method, then: Platelet Aggregation Assay: Venous blood was obtained from the arm of a healthy human donor who was drug-free and aspirin-free for at least two weeks prior to blood collection. Blood was collected into 10 ml citrated Vacutainer tubes. The blood was centrifuged for 15 minutes at 150 x g at room temperature, and platelet-rich plasma (PRP) was removed. The remaining blood was centrifuged for 15 minutes at 1500 x g at room temperature, and platelet-poor plasma (PPP) was removed. Samples were assayed on a aggregometer (PAP-4 Platelet Aggregation Profiler), using PPP as the blank (100% transmittance). 200 µl of PRP was added to each micro test tube, and transmittance was set to 0%. 20 µ of various agonists (ADP, collagen, arachidonate, epinephrine, thrombin) were added to each tube, and the aggregation profiles were plotted (% transmittance versus time). The results are expressed as % inhibition of agonist-induced platelet aggregation. For the IC50 evaluation, the test compounds were added at various concentrations prior to the activation of the platelets.
Table A below sets forth the antiplatelet activity of representative compounds of the present invention. The indicated compounds were tested for their ability to inhibit platelet aggregation (using platelet rich plasma (PRP)). […]
On to `O=C(O)CCCN1C(=O)CC2(CC(CCCC3CCNCC3)=NO2)C1=O` (stereo not shown) [Example 373], for which the IC50 was 10 to 50 µM.

The next test deals with human platelet rich plasma (Homo sapiens, UniProt P05106+P08514). The test can be described thus: Platelet Aggregation Assay, ester prodrugs preincubated with porcine liver esterase. The note with it: platelet rich plasma (PRP). The class given is cell-based. The method, then:
Aliquots are then diluted in 0.1 M Tris, pH 7.4, to the desired concentrations. Aliquots of 20 µl of the esterase pretreated prodrugs are added to 200 µl of human platelet rich plasma. […] Platelet aggregation was allowed to proceed for 5 minutes. Percent inhibition is calculated using percent aggregation in the presence of the test compound divided by percent aggregation of control, times 100. This value is subtracted from 100, yielding percent inhibition. Calculation of IC50 is performed on a Texas Instruments TI59 with an IC50 program.
For the compound `COC(=O)C(CNC(=O)CC1CC(c2ccc(C(=N)N)cc2)=NO1)NC(=O)c1ccc(-c2ccccc2)cc1` (stereo not shown) [Example 523], the half-maximal inhibitory concentration (IC50) is under 10 µM.
Still for that read-out and setting: the same measure for `COC(=O)C(CNC(=O)CC1CC(c2ccc(C(=N)N)cc2)=NO1)NS(=O)(=O)c1ccc(-c2ccccc2)cc1` (stereo not shown) [Example 546]: under 10 µM; for “Methyl N^2-(m-toluenesulfonyl)-N^3-[3-(2-amidinopyrid-5-yl)isoxazolin-5-ylacetyl]-S-2,3-diaminopropionate bis hydrochloric acid salt [Example 516]”: under 10 µM; for “Methyl N^2-(m-toluenesulfonyl)-N^3-[3-(3-amidinopyrid-6-yl)isoxazolin-5-ylacetyl]-S-2,3-diaminopropionate bis hydrochloric acid salt [Example 514]”: under 10 µM.
Take “Methyl N^2-(n-butyloxycarbonyl)-N^3-[3-(2-amidinopyrid-5-yl) isoxazolin-5-ylacetyl]-S-2,3-diaminopropionate bis hydrochloric acid salt [Example 515]”: the IC50 is under 10 µM.
Still for that read-out and setting: as for “Methyl N^2-(n-butyloxycarbonyl)-N^3-[3-(3-amidinopyrid-6-yl) isoxazolin-5-ylacetyl]-S-2,3-diaminopropionate bis hydrochloric acid salt [Example 513]”, the figure is under 10 µM.

One may read the IC50 as the concentration at which inhibition is half-maximal.
